The text below walks through data of patent publication US20210284618A1, “FURANOCHALCONES AS INHIBITORS OF CYP1A1, CYP1A2 AND CYP1B1 FOR CANCER CHEMOPREVENTION” (Council of Scientific & Industrial Research, priority 2016, published 2021).

One data set has as its target T1, CYP1A1 (Homo sapiens, UniProt P04798).
T1 construct: host or cells: yeast microsomes (Saccharosomes)
T1 sequence (P04798 1-512): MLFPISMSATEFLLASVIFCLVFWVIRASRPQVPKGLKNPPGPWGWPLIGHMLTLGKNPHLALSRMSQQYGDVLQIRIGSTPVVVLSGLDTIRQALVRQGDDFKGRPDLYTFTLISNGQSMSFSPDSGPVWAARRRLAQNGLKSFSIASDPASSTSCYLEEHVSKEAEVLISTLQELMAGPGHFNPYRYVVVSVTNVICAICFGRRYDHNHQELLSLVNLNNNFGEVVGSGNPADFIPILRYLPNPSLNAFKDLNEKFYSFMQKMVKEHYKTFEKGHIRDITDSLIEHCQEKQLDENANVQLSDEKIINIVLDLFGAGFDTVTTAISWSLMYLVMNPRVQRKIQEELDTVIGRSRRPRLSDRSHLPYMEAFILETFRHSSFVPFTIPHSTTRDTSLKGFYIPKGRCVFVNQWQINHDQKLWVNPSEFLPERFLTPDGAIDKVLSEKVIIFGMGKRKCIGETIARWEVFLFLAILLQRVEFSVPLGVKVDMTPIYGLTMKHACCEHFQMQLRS
Put plainly: In-vitro CYP450 1A1 enzyme inhibition in Saccharosomes. In kind it is biochemical. The protocol:
Example 23. In-vitro CYP450 1A1 enzyme inhibition in Saccharosomes™: The screening method utilizes 384-well microplates to rapidly ascertain relative percentage inhibition of CYP1A1 by a library of compounds. Each reaction was performed in black, clear-bottomed 384-well microplates. A reaction volume of 50 μl comprised of 0.5 pmol of the cytochrome P450 CYP1A1 (Saccharosomes), 5 μM of ethoxyresorufin substrate (which contributes 0.05% DMSO to the well), 10 μM of potential inhibitor test article (which contributes 0.5% DMSO to the well), A P450 reductase NADPH regenerating system (1.3 mM NADP+, 3.3 mM glucose-6-0.02 units phosphate and glucose-6-Phosphate dehydrogenase), potassium phosphate buffer (final well concentration 100 mM, pH 7.4) and water. Very small quantities of magnesium chloride and sodium citrate are added to the NADPH regenerating system, in line with standard published protocols. The potential inhibitor (test article) was pre-incubated with CYP1A1 of at least 20 minutes at 30° C. After this period, the remainder of the reagents required in the assay was added to initiate the process. The reaction mixture was incubated for another 20 minutes at 30° C. The reaction was stopped by adding an 80% acetonitrile, 20% 0.5 M Tris solution. The reactions were monitored using the Biotek Synergy HT plate reader by measuring the endpoint reaction at Excitation 530/(25 bandwidth) & Emission 590/(20 bandwidth) using a gain/sensitivity setting of 60. The mean of the quadruplicates of the negative control (solvent inactivated CYP1A1) was deducted from the mean of potential inhibitor (test article) samples. The percentage was then derived relative to the mean of the wells without inhibitor.
(§1) Example 25. IC50 determination for best compound against CYP1A1, CYP1B1 and other CYPs in Saccharosomes. Compounds were serially diluted to six different concentrations with 10% DMSO in a Sero-Well white microplate. The experiment was performed in a similar way as described above in examples 23 and 24.

Another data set addresses T2, CYP2A6 (Homo sapiens, UniProt P11509).
T2 construct: host or cells: yeast microsomes (Saccharosomes)
T2 sequence (P11509 1-494): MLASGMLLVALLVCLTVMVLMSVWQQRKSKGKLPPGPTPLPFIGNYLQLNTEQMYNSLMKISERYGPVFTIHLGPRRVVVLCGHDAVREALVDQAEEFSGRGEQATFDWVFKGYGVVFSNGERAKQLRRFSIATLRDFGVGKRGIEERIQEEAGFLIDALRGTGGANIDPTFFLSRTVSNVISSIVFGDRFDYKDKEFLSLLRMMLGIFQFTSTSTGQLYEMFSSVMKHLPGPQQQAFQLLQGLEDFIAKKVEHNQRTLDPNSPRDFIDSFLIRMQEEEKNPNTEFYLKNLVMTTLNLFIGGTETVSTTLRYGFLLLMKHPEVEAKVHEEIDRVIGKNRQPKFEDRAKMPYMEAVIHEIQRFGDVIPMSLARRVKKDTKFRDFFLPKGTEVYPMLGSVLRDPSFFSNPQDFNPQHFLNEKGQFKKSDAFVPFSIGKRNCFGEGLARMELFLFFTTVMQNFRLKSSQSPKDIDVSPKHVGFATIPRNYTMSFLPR
The data set can be described thus: CYP2A6 inhibition in Saccharosomes. In kind it is biochemical. The procedure: as §1

Another data set deals with T3, CYP2B6 (Homo sapiens, UniProt P20813).
T3 construct: host or cells: yeast microsomes (Saccharosomes)
T3 sequence (P20813 1-491): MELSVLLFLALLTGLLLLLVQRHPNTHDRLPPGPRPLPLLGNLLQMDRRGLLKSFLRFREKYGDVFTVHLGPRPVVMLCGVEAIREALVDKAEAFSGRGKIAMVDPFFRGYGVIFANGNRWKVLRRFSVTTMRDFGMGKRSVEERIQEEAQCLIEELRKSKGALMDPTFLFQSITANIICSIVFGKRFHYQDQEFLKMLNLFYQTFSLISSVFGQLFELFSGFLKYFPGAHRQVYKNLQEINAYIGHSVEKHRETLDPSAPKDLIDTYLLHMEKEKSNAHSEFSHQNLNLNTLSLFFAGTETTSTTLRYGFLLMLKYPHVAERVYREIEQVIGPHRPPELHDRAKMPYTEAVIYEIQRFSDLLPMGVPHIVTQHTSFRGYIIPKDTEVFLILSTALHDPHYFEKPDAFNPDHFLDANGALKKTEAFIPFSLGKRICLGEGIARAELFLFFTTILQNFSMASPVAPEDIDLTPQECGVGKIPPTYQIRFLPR
The data set can be described thus: CYP2B6 inhibition in Saccharosomes. The conditions noted are these: Saccharosomes containing CYP2B6. In kind it is biochemical.

The next data set concerns the target T4, CYP2C9 (Homo sapiens, UniProt P11712).
T4 construct: host or cells: yeast microsomes (Saccharosomes)
Put plainly: CYP2C9 inhibition in Saccharosomes. Format: biochemical. The conditions noted are these: Saccharosomes containing CYP2C9.

In a further data set the target is T5, CYP2D6 (Homo sapiens, UniProt P10635).
T5 construct: host or cells: yeast microsomes (Saccharosomes)
Put plainly: CYP2D6 inhibition in Saccharosomes. In kind it is biochemical. The procedure: as §1

“And” between values parts separate entries of the source, which are not always exact repeats. Equal values may be shown once.

T5 sequence (P10635 whole entry): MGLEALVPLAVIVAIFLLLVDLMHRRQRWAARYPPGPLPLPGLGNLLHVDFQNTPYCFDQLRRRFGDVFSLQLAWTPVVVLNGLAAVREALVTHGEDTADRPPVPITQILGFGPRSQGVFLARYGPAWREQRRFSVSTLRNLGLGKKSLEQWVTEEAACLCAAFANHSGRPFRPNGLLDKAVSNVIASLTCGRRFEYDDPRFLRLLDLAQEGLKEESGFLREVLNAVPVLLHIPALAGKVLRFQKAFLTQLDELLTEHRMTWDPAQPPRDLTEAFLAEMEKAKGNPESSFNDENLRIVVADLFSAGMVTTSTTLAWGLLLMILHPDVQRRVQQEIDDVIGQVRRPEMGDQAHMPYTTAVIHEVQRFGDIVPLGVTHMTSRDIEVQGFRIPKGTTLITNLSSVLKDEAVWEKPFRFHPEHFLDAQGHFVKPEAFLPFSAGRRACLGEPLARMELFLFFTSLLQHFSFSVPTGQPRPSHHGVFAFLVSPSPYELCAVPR
T4 sequence (P11712 whole entry): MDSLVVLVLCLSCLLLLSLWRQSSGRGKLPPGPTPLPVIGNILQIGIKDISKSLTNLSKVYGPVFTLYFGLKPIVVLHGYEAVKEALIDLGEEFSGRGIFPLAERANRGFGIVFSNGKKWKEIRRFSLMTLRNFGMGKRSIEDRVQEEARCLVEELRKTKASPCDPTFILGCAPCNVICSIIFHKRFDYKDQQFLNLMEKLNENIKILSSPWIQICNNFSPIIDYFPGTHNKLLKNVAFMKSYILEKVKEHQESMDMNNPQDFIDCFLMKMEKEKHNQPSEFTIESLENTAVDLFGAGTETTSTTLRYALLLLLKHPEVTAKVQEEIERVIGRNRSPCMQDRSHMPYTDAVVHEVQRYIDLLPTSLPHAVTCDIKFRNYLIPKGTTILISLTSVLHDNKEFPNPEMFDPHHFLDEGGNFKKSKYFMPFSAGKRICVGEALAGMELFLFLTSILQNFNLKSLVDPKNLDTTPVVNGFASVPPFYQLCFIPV

The compound `COc1c(C(=O)/C=C/c2cccnc2)c(O)c(OC)c2occc12` [Compound 8, 3-(4,7-dimethoxy-6-hydroxybenzofuran-5-yl)-1-(pyridin-3-yl)-3-oxopropene] had a melting point of 112 to 114 °C. Moreover, on CYP1A1, the concentration for half-maximal inhibition (IC50) is 0.342 µM. Besides, at CYP1A1 (10 μM test compound, 5 μM ethoxyresorufin), the “% inhibition of CYP1A1 in Saccharosomes at 10 μM” value is 97% and 97.2%. In addition, the inhibition at 20 min, 10 μM on CYP1A1 (human, Saccharosomes containing CYP1A1, pH 7.4, probe ethoxyresorufin (5 μM), % inhibition of CYP1A1 in Saccharosomes at 10 μM, 10 μM test compound, 5 μM ethoxyresorufin) is greater than 80%. Moreover, the “Inhibition of CYP2A6 at 20 μM” value at CYP2A6 is given as “No Inhibition”. Besides, at CYP2B6, the inhibition at 20 µM was determined as 15%. Also, at CYP2C9, 20 µM produced 62% inhibition. For the same compound, 7 µM corresponded to half-maximal inhibition on CYP2D6 (IC50). This compound came in with an inhibition at 20 µM against CYP2D6 (human, Saccharosomes containing CYP2D6, 20 μM) of 84%.

In general, IC50 refers to the point on the concentration scale where inhibition reaches its midpoint. As a reminder, the inhibition is the drop in the measured response relative to a control, in per cent. Usually melting point stands for the temperature of the solid-liquid transition.
